The test system of the assay is human peripheral blood lymphocytes. In words: PHA mitogen-induced lymphocyte proliferation using human peripheral blood lymphocytes (HPBL). Format: cell-based. The settings on record: for Cpm Incorp. +PHA: with PHA; for Cpm Incorp. +PHA / Cpm Incorp. -PHA / S.I. / fold induction at 0.036 µM / fold induction at 0.36 µM / fold induction at 3.6 µM: NPT 15392 values means of three experiments; for Cpm Incorp. -PHA: without PHA; for S.I.: NPT 15458 p ≤ 0.05; for fold induction at 0.036 µM / fold induction at 0.36 µM / fold induction at 3.6 µM: Homo sapiens, Lymphocyte, read-out: D/C (S.I. drug / control); for Immunomodulating (in vitro) lymphocyte proliferation (in words): PHA, HPBL; for Immunomodulating (in vitro) Lymph. Prolif., change: Table 11 summary. The procedure:
2. Mitogen induced lymphocyte proliferation using human peripheral blood lymphocytes (HPBL) (in vitro).
1. Twenty-two and a half grams of Ficoll 400 (Pharmacia, M.W. .perspectiveto.400,000) are dissolved in 200 ml of distilled H2 O. When most of the material is in solution, the volume is then adjusted to 250 ml with distilled H2 O.
2. Thirty-four grams of Hypaque (sodium diatrizoate, Sterling Organics, M.W. .perspectiveto.636) are dissolved in 100 ml distilled H2 O.
3. Solutions are then sterile filtered thorugh a 0.45μ millipore filter and stored in sterile containers at 4° C. away from light.
4. Working solutions are prepared by mixing 10 ml Hypaque solution with 24 ml Ficoll solution. The mixture is warmed to 25° C. with constant stirring.
1. Human blood samples are obtained by veinipuncture into heparinized 20 ml-vacutainer tubes. Fifteen to twenty ml of the undiluted blood is gently layered over an equal volume of Ficoll-Hypaque solution in sterile 50 ml polycarbonate centrifuge tubes using aseptic techniques.
2. Prepared samples are centrifuged at 25° C., 400×g for 30 mins. The fuzzy white band at the interface is aseptically aspirated into a 50 ml sterile centrifuge tube with 10-20 ml RPMI-1640. The cells are washed once at 25° C. 400×g for 10 mins. at 25° C.
3. Pelleted PBL's are resuspended in 1 ml RPMI for every 8 ml whole blood originally used and counted with a Coulter counter. Concentration is adjusted with RPMI-1640 supplemented with glutamine and antibiotics. The cells are held at room temperatue until used.
1. Lipopolysaccharide B or Phytohemagglutinin P powder is weighed and dissolved in RPMI-1640 at a concentration of 1000 μg/ml (1 mg/ml) and filter sterilized through a 0.45μ millipore filter.
2. Solutions are aliquotted (1 ml/tube) asceptically into labelled sterile cryotubes and frozen. Samples are not refrozen after partial use, but may be stored for a day or two at 4° C. Lyophilized powder is kept refrigerated at 4° C.
1. PBL's are prepared as in SOP #I-004 in serum-free RPMI-1640 supplemented with glutamine and antibiotic-antimycotic solution (GIBCO). One tenth ml per well is added to each well of 96-well microtest culture plates (CoStar Plastics) with 8-channel automatic micropipettors (Flow Labs.) fitted with sterile tips.
2. Mitogen solutions are thawed rapidly and diluted to 4 times the desired concentration with RPMI-1640.
3. Test compounds are prepared for use as per SOP #C-002, using RPMI-1640 as diluent, and diluted to 4 times the final desired concentration.
4. Fifty μl of each dilution of mitogen and/or test compound is added to 6 replicate cultures. Plain RPMI-1640 is used in the same amounts in control cultures for a total volume of 0.2 ml/well.
5. Cultures are incubated at 37° C. in a humidified 95% air, 5% CO2 atmosphere (pH .perspectiveto.6.0- 7.0) for 48 hours. The cells are then labelled with 0.5μCi/well ^3 H-TdR (Thymidine) for an additional 18 hours. the cells are harvested with a multiple automatic sample harvester (M.A.S.H.) machine. Nonadherent cells are aspirated onto glass fiber filter strips with 0.9% saline solution (10 well flushes) and the cells lysed with distilled water (20 well flushes). The strips are thoroughly air dried, residual cell deposits cut from the strips and each sample placed in 1 dram glass scintillation vials. Scintillation fluid concentrate (Scintiprep 1, Fisher Chemicals) is diluted 1:50 with scintillation grade toluene (Packard) and 1 ml added to each vial. Samples are evaluated by liquid scintillation spectroscopy and the data expressed as the means counts per minute per test group.

SMILES strings stand for the structures.

The results in this text go back to patent US4457919A, “Method of imparting immunomodulating, antiviral or antitumor activity” (Newport Pharmaceutical International, Inc., priority 1982, dated 1984).

For `CCCCCC[C@H]([C@H](C)O)n1cnc2c(=O)[nH]cnc21` (relative stereo) [NPT 15392, erythro-9-(2-hydroxy-3-nonyl)-hypoxanthine, reference compound], the “Immunomodulating (in vitro) lymphocyte proliferation (in words)” value (“Immunomodulating … (in words)” for short) is reported as “Yes” and the “Immunomodulating (in vitro) Lymph. Prolif., change” value (from here on “Immunomodulating … change”) is on record as 12-27%. Moreover, where the note is “0.036 n moles/ml”, the “Cpm Incorp. +PHA” value was 59,167 Cpm, the “Cpm Incorp. -PHA” value is given as 297 Cpm, the S.I. amounted to 199 and the fold induction at 0.036 µM was determined as 1.27. Moreover, where the note is “0.36 n moles/ml”, the “Cpm Incorp. +PHA” value is on record as 69,057 Cpm, the “Cpm Incorp. -PHA” value came out at 577 Cpm, the S.I. is reported as 120 and the fold induction at 0.36 µM is 0.76. Under “3.6 n moles/ml”, the “Cpm Incorp. +PHA” value is 67,328 Cpm, the “Cpm Incorp. -PHA” value was determined as 381 Cpm, the S.I. is reported as 176 and the fold induction at 3.6 µM is 1.13.

Take `CCCCCC[C@H]([C@H](C)OC(=O)CCC(=O)O)n1cnc2c(=O)[nH]cnc21` (relative stereo) [NPT 15457, Erythro-9-(2-Succinoxy-3-Nonyl) Hypoxanthine]: the “Immunomodulating … (in words)” value is “effectve in augmenting PHA induced lymphocyte proliferation and Yes”; the “Immunomodulating … change” value is listed as 14-28%. Moreover, where the note is “0.036 n moles/ml”, the “Cpm Incorp. +PHA” value is on record as 59,569 Cpm, the “Cpm Incorp. -PHA” value amounted to 240 Cpm, the S.I. was 250 and the fold induction at 0.036 µM was determined as 1.28. Further, where the note is “0.36 n moles/ml”, the “Cpm Incorp. +PHA” value was 59,689 Cpm, the “Cpm Incorp. -PHA” value is reported as 228 Cpm, the S.I. was 261 and the fold induction at 0.36 µM was 1.33. Moreover, under “3.6 n moles/ml”, the “Cpm Incorp. +PHA” value is 52,149 Cpm, the “Cpm Incorp. -PHA” value is 232 Cpm, the S.I. was determined as 224 and the fold induction at 3.6 µM was determined as 1.14.

`CCCCCC[C@H]([C@H](C)OC(C)=O)n1cnc2c(=O)[nH]cnc21` (relative stereo) [NPT 15458, erythro-9-(2-Acetoxy-3-Nonyl)-Hypoxanthine]: the “Immunomodulating … (in words)” value was “effectve in augmenting PHA induced lymphocyte proliferation and Yes”; the “Immunomodulating … change” value was 43-48%. For the setting “0.036 n moles/ml”, the “Cpm Incorp. +PHA” value was 59,898 Cpm, the “Cpm Incorp. -PHA” value was found to be 214 Cpm, the S.I. came to 280 and the fold induction at 0.036 µM was 1.43. Under “0.36 n moles/ml”, the “Cpm Incorp. +PHA” value was 63,858 Cpm, the “Cpm Incorp. -PHA” value was found to be 221 Cpm, the S.I. is reported as 289 and the fold induction at 0.36 µM is 1.48. Under “3.6 n moles/ml”, the “Cpm Incorp. +PHA” value was 69,055 Cpm, the “Cpm Incorp. -PHA” value is listed as 238 Cpm, the S.I. is reported as 290 and the fold induction at 3.6 µM stood at 1.48.
